Reference: BindingDB's records for doi:10.1021/jm010999g (2002)

Tests used:
[1] = biological target: T1, ATP-binding cassette sub-family C member 9 (Rattus norvegicus, UniProt Q63563); test: Binding affinity to the sulfonylurea receptor 2A (SUR2A) in purified membranes of rat-heart myocytes
[2] = biological target: T1, ATP-binding cassette sub-family C member 9; test: Binding affinity towards Sulfonylurea receptor 2B (SUR2B) in cultured rat aortic smooth muscle cells (SMC)

T1 sequence (Q63563 whole entry): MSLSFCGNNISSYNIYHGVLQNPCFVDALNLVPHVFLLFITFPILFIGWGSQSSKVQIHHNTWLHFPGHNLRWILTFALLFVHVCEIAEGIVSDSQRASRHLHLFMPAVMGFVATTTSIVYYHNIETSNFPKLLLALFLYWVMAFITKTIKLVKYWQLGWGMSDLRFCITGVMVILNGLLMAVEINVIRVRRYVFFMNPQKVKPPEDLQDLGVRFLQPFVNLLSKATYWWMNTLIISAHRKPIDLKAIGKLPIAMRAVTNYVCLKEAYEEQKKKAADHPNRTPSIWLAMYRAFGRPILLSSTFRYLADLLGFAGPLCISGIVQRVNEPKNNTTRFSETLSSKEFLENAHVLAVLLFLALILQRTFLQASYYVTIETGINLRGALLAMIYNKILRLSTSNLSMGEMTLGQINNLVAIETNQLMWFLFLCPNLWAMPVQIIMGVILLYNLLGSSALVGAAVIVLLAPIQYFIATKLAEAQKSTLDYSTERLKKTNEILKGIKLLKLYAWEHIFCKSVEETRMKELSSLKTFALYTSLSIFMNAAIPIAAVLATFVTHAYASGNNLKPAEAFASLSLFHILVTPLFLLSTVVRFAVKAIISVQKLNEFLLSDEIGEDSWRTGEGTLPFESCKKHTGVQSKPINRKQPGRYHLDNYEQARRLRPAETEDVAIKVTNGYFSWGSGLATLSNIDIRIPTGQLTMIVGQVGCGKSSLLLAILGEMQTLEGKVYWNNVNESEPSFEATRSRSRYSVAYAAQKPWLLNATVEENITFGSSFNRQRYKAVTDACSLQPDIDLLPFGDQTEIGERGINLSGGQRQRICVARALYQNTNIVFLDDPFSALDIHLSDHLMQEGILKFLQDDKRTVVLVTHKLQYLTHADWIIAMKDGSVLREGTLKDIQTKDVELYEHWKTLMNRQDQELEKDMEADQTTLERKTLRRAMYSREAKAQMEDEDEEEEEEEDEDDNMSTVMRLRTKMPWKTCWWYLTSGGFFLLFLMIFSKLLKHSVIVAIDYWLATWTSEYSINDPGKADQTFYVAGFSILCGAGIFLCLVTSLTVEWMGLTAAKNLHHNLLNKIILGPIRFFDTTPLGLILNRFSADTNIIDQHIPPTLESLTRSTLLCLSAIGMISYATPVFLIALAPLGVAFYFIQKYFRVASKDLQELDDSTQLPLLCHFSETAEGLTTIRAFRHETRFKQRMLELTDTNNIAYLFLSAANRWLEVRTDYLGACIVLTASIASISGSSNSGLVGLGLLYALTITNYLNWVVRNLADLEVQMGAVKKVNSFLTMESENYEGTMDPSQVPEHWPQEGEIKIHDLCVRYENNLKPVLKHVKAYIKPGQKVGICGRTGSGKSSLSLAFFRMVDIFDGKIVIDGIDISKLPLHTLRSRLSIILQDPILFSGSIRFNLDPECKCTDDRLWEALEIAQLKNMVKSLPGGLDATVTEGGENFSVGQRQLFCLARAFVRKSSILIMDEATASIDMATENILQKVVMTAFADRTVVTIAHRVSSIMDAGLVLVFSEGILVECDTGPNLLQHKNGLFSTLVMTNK

For `CC1(C)C=C(n2ccccc2=O)c2cc(C#N)ccc2O1` [Bimakalim], the Kd [1] was 56 nM and the Kd [2] was 10 nM.

For `CC1(C)C=C(n2ccccc2=O)c2cc(S(=O)(=O)Nc3ccccc3F)ccc2O1`, the Kd [1] was 23 nM and the Kd [2] was 11 nM.

`CC1(C)C=C(n2ccccc2=O)c2cc(S(=O)(=O)N3CCOCC3)ccc2O1` showed a Kd [1] of 363 nM and a Kd [2] of 186 nM.

Work on `CC1(C)C=C(n2ccccc2=O)c2cc(S(=O)(=O)Nc3ccccc3Br)ccc2O1` yielded a Kd [1] of 138 nM and a Kd [2] of 23 nM.

`CCNS(=O)(=O)c1ccc2c(c1)C(n1ccccc1=O)=CC(C)(C)O2` gave a Kd [1] of 200 nM and a Kd [2] of 100 nM.

Molecule `CC1(C)C=C(n2ccccc2=O)c2cc(S(=O)(=O)NCc3ccccc3)ccc2O1` has a Kd [1] of 5250 nM and a Kd [2] of 1000 nM.

In the case of `CN(c1ccccc1)S(=O)(=O)c1ccc2c(c1)C(n1ccccc1=O)=CC(C)(C)O2`, the Kd [1] is reported as 20 nM and the Kd [2] is reported as 13 nM.

Molecule `CC1(C)C=C(n2ccccc2=O)c2cc(S(=O)(=O)Oc3ccccc3)ccc2O1` has a Kd [1] of 17 nM and a Kd [2] of 2.8 nM.

`CC1(C)C=C(n2ccccc2=O)c2cc(S(=O)(=O)c3ccccc3)ccc2O1` was tested, and the Kd [1] was 138 nM and the Kd [2] was 65 nM.

`CNS(=O)(=O)c1ccc2c(c1)C(n1ccccc1=O)=CC(C)(C)O2` showed a Kd [1] of 66 nM and a Kd [2] of 55 nM.

Work on `CC1(C)C=C(n2ccccc2=O)c2cc(S(=O)(=O)NC(=O)NC3CCCCC3)ccc2O1` yielded a Kd [1] of 5620 nM.

With `CC1(C)C=C(n2ccccc2=O)c2cc(S(=O)(=O)Nc3ccc(C#N)cc3)ccc2O1` the Kd [1] was 3160 nM and the Kd [2] was 759 nM.

`CN(C)S(=O)(=O)c1ccc2c(c1)C(n1ccccc1=O)=CC(C)(C)O2` was tested, and the Kd [1] was 123 nM and the Kd [2] was 63 nM.

For `CC1(C)Oc2ccc(S(=O)(=O)c3ccccc3)cc2[C@@H](N2CCCC2=O)[C@@H]1O` [Rilmakalim], the Kd [1] was 27 nM and the Kd [2] was 7.1 nM.

With `[2H]c1c([2H])c([2H])c(NS(=O)(=O)c2ccc3c(c2)C(n2ccccc2=O)=CC(C)(C)O3)c([2H])c1[2H]` the Kd [1] was 19 nM and the Kd [2] was 7.4 nM.

`CC1(C)C=C(n2ccccc2=O)c2cc(S(=O)(=O)NC(=O)Nc3ccccc3)ccc2O1` showed a Kd [1] of 2820 nM.

`COc1ccc(NS(=O)(=O)c2ccc3c(c2)C(n2ccccc2=O)=CC(C)(C)O3)cc1` was tested, and the Kd [1] was 537 nM and the Kd [2] was 245 nM.

`CC1(C)C=C(n2ccccc2=O)c2cc(S(=O)(=O)F)ccc2O1` was tested, and the Kd [1] was 15 nM and the Kd [2] was 9.8 nM.

In the case of `CC1(C)C=C(n2ccccc2=O)c2cc(S(=O)(=O)NCCO)ccc2O1`, the Kd [1] is reported as 692 nM and the Kd [2] is reported as 457 nM.

`CC1(C)C=C(n2ccccc2=O)c2cc(S(=O)(=O)Nc3ccc(Br)cc3)ccc2O1` gave a Kd [1] of 1700 nM and a Kd [2] of 224 nM.

Work on `CCN(CC)S(=O)(=O)c1ccc2c(c1)C(n1ccccc1=O)=CC(C)(C)O2` yielded a Kd [1] of 355 nM and a Kd [2] of 115 nM.

Molecule `CC1(C)C=C(n2ccccc2=O)c2cc(S(N)(=O)=O)ccc2O1` has a Kd [1] of 316 nM and a Kd [2] of 115 nM.

`CC1(C)C=C(n2ccccc2=O)c2cc(S(=O)(=O)N=[N+]=[N-])ccc2O1` showed a Kd [1] of 15 nM.

`CC1(C)C=C(n2ccccc2=O)c2cc(S(=O)(=O)Nc3ccccc3)ccc2O1` showed a Kd [1] of 15 nM and a Kd [2] of 8.9 nM.

For `CC(C)NS(=O)(=O)c1ccc2c(c1)C(n1ccccc1=O)=CC(C)(C)O2`, the Kd [1] was 6610 nM and the Kd [2] was 8320 nM.

`CC1(C)C=C(n2ccccc2=O)c2cc(S(=O)(=O)NC3CCCC3)ccc2O1` gave a Kd [1] of 1410 nM and a Kd [2] of 537 nM.

For `CC1(C)C=C(n2ccccc2=O)c2cc(S(=O)(=O)Nc3ccc([N+](=O)[O-])cc3)ccc2O1`, the Kd [1] was 4470 nM and the Kd [2] was 1590 nM.
